Measured values reported in US6977254B2, “Hydroxy cyclohexenyl phenyl carboxamides tocolytic oxytocin receptor antagonists” (Wyeth, priority 2001, dated 2005).

Target: T1, human oxytocin receptor (Homo sapiens, UniProt P30559)
T1 construct: host or cells: CHO cells, stably transfected (pcDNA3.1 vector); membranes
T1 sequence (P30559 1-389): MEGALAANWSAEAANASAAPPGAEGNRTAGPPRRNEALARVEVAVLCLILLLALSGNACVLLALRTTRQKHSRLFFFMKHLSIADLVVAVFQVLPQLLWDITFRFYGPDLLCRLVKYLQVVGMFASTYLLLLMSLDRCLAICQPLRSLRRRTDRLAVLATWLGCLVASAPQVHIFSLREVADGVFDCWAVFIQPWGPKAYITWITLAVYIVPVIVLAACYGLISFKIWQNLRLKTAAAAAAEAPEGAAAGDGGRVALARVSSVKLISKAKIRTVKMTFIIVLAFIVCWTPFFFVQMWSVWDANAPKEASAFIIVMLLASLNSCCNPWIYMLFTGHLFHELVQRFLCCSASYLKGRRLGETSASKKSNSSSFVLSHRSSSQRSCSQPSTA
Assay: Oxytocin binding in CHO cell membranes expressing human oxytocin receptors ([3H]oxytocin radioligand)
Details: for IC50: value in parentheses, read-out: OT (IC50); for OT % inhibition @ 100 nM: value without parentheses
Text: Oxytocin binding in Chinese Hamster Ovary cell membranes expressing human oxytocin receptors
Chinese Hamster Ovary (CHO) cells stably transfected with the human oxytocin (cf. T. Kimura et al., U.S. Pat. No. 5,466,584 (1995) to Rohto Pharmaceutical Co. Ltd., Osaka, Japan) were obtained from Dr. M. Thibonnier, Case Western Reserve University School of Medicine, Cleveland, Ohio.
A. Passaging and Amplification of Cells:
CHO cells transfected with the human oxytocin receptors obtained from M. Thibonnier (pcDNA3.1 vector) are allowed to grow to confluency (approx. >90%) in T-150 flasks under sterile conditions, in a cell culture medium of F-12 Nutrient Mixture (HAM) with L-glutamine (Gibco Cat. #11765-054) containing 15 mM HEPES (Gibco Cat. #15630-080), 1% antibiotic/antimycotic (add 5 mL 100×, Gibco Cat. #15240-062 per 500 mL F-12), 400 μg/mL of Geneticin (add 4 mL of 50 mg/mL per 500 mL F-12) and 10% Fetal Bovine Serum (Qualified, heat inactivated, Gibco Cat. #16140-063). The medium is removed by aspiration and the cells are washed with 10 mL of Hank's Balanced Salt solution (Gibco Cat. #14175-095). The salt solution is removed by aspiration and the cells trypsinized with 5 mL of trypsin-EDTA (0.05% trypsin, 0.53 mM EDTA-4Na, Gibco Cat. #25300-070) for 1 min The trypsin is removed by aspiration and the cells dislodged by tapping. Cell Culture medium (e.g. 30 mL for 1:30 split) is immediately added and mixed well to inactivate trypsin. 1 mL of detached cells is added to new culture flasks containing fresh Cell Culture medium (e.g. into 25 mL per T-150 flask), and mixed gently. The cells are incubated at 37° C. in 5% CO2. The medium is changed at 3 to 4 days interval (or as appropriate). The cells grow to confluency (approx. >75%-95%) within 7-8 days. All steps are done under sterile conditions.
The cells are washed twice gently with Hank's Balanced Salt solution (eg, use 10 mL per T-150 flask). The excess is removed and the cells bathed for 15-30 min. in an enzyme-free Cell Dissociation Buffer (eg, use 8 mL Hank's Based, Gibco Cat. #13150-016 per T-150 flask) until cells are loosened. The contents are transferred to centrifuge tubes (50 mL size) kept in ice bath. All subsequent steps are done at 4° C. The tubes are centrifuged at 300×g for 15 min (1380 rpm on SORVAL, Model RT6000D, using rotor for 50 mL tubes). The supernatant is discarded and the cells suspended in homogenizing buffer (10 mM Tris-HCl containing 0.25 M sucrose and 1 mM EDTA, pH 7.4) ensuring that the volume of the buffer is about ten times the volume of the cell pellet. The cells are pooled into a centrifuge tube (50 mL) and homogenized with Polytron at setting 6 for 10 sec. The homogenate is transferred into a Potter-Elvjehm homogenizer and homogenized with 3 strokes. The homogenate is centrifuged at 1500×g for 10 min at 4° C. (3100 rpm using SORVAL, model RT6000D, using rotor for 50 mL tubes). The pellet is discarded. The supernatant is centrifuged at 100,000×g for 60 min. at 4° C. (Beckman L8-80M ultracentrifuge; spin at 37,500 rpm with rotor type 70 Ti for 50 mL tubes; 38,000 rpm with type 80Ti for 15 mL tubes; or 35,800 rpm with rotor type 45Ti). The supernantant is discarded and the pellet suspended in 3 to 4 mL of Tris buffer (50 mM TRIS-HCl, pH 7.4). The protein content is estimated by the Bradford or Lowry method. The volume of the membrane suspension is adjusted with the membrane buffer (50 mM Tris-HCl containing 0.1% BSA and 0.1 mM PMSF) to give 3.0 mg/mL (or as appropriate) of protein. The membranes are aliquoted and stored at −70° C.
C. Radioligand Binding Assay:
In wells of a 96-well format microtiter plate, is added 90, 110 or 130 μL (to make up a final volume of 200 μL) of assay buffer containing 50 mM of Tris-HCl (pH 7.4), […], 1 mg % aprotinin, 1 mg % leupeptin, 2 mg % 1,10-phenanthroline, 10 mg % trypsin inhibitor, and 0.1 mM PMSF. The inhibitors are added on the day of the experiment. […]

| IC50 | OT % inhibition @ 100 nM | SMILES |
| --- | --- | --- |
| 19.6 nM | – | COC[C@@H](OC)[C@@H](OC)[C@H](OC)[C@H](CN(C)C(=O)c1ccc2n1Cc1ccccc1N(C(=O)c1cc(Cl)c(C3=CCCCC3)cc1OC)C2)OC [Example 2, 10-(5-Chloro-4-cyclohex-1-en-1-yl-2-methoxybenzoyl)-N-methyl-N-[(2S,3R,4R,5R)-2,3,4,5,6-pentamethoxyhexyl]-10,11-dihydro-5H-pyrrolo[2,1-c][1,4]benzodiazepine-3-carboxamide] |
| – | 54% | Cc1cc(C(=O)N2Cc3ccc(C(=O)N[C@@H](Cc4ccc(O)cc4)C(=O)O)n3Cc3ccccc32)ccc1C1=CCCCC1 [Example 10] |
| 2.15 nM | – | Cc1cc(C(=O)N2Cc3ccc(C(=O)N(C)C[C@H](O)[C@@H](O)[C@H](O)[C@H](O)CO)n3Cc3ccccc32)ccc1C1=CCCCC1 [Example 5] |
| – | 10% | Cc1cc(C(=O)N2Cc3ccc(C(=O)C(Cl)(Cl)Cl)n3Cc3ccccc32)ccc1C1=CCCCC1 [Example 5D, 2,2,2-Trichloro-1-[10-(4-cyclohex-1-en-1-yl-3-methyl-benzoyl)-10,11-dihydro-5H-pyrrolo[2,1-c][1,4]benzodiazepin-3-yl]-methanone] |
| 2.07 nM | – | COc1cc(C2=CCCCC2)c(Cl)cc1C(=O)N1Cc2ccc(C(=O)N(C)CC(O)CO)n2Cc2ccccc21 (centres unmarked) [Example 4, 10-(5-Chloro-4-cyclohex-1-en-1-yl-2-methoxybenzoyl)-N-(2,3-dihydroxypropyl)-N-methyl-10,11-dihydro-5H-pyrrolo[2,1-c][1,4]benzodiazepine-3-carboxamide] |
